Where two headings read alike, the source gives them in different places.
What was measured:
Type in all cases: in vivo
[1] = test system: sedge, umbrella (small-flower umbrella sedge, Cyperus difformis); test: Test B flooded paddy test, sedge, umbrella; conditions: Cyperus difformis; 250 g ai/ha, Flood; visually evaluated after 10 to 14 days; read-out: Plant response rating, Sedge, Umbrella (0 to 100 scale where 0 is no effect and 100 is complete control)
Summary of the method: (§1)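 Greenhouse paddy assay in which test compounds were dosed into floodwater standing 3 cm above the soil. Plants were at the 2-leaf stage, the water level was kept constant, and effects were rated visually 10–14 days later on a 0–100 scale relative to controls.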

[2] = test system: ragweed (common ragweed, Ambrosia artemisiifolia); test: Test A preemergence, ragweed; conditions: Ambrosia artemisiifolia, pre-emergence, 240 h, 0 to 100 scale, 10 days, read-out: Plant response rating, Ragweed; for pest or weed control at 31 g/ha: 31 g ai/ha; for pest or weed control at 125 g/ha: 125 g ai/ha
Summary of the method: (§2)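 Scores reflect visual injury versus untreated controls after 10 days in a greenhouse, on a scale from 0 (none) to 100 (complete control); pre- and postemergence sprays used loam/sand pots, postemergence at the one- to two-leaf stage.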

[3] = test system: wheat (Triticum aestivum); test: Test A postemergence, wheat; conditions: Triticum aestivum, post-emergence, 240 h, 10 days, read-out: Plant response rating, Wheat; for plant injury at 31 g/ha: 31 g ai/ha, postemergence, 0 to 100 scale (0 no effect, 100 complete control); for plant injury at 125 g/ha: Postemergence, 125 g ai/ha, 0 to 100 scale
Summary of the method: as §2

[4] = test system: corn (Zea mays); test: Test A postemergence, corn; conditions: Zea mays, post-emergence, 240 h, 10 days; for Corn plant response rating (crop injury, 0 = no effect, 100 = complete kill) at 31 g/ha: 31 g ai/ha; for Corn plant response rating (crop injury, 0 = no effect, 100 = complete kill) at 125 g/ha: 125 g ai/ha
Summary of the method: as §2

[5] = test system: barnyardgrass (Echinochloa crus-galli); test: Test A preemergence, barnyardgrass; conditions: 10 days
Summary of the method: as §2

[6] = test system: ryegrass, Italian (Italian ryegrass, Lolium multiflorum); test: Test A preemergence, ryegrass, Italian; conditions: Lolium multiflorum, pre-emergence, 240 h, 0 to 100 scale, 10 days, read-out: Plant response rating, Ryegrass, Italian; for pest or weed control at 31 g/ha: 31 g ai/ha; for pest or weed control at 125 g/ha: 125 g ai/ha
Summary of the method: as §2

[7] = test system: barnyardgrass (Echinochloa crus-galli); test: Test B flooded paddy test, barnyardgrass; conditions: Echinochloa crus-galli; 250 g ai/ha, Flood; visually evaluated after 10 to 14 days; read-out: Plant response rating, Barnyardgrass (0 to 100 scale where 0 is no effect and 100 is complete control)
Summary of the method: as §1

[8] = test system: ragweed (common ragweed, Ambrosia artemisiifolia); test: Test A postemergence, ragweed; conditions: Ambrosia artemisiifolia, post-emergence, 240 h, 10 days, read-out: Plant response rating, Ragweed; for pest or weed control at 31 g/ha: 31 g ai/ha, postemergence, 0 to 100 scale (0 no effect, 100 complete control); for pest or weed control at 125 g/ha: Postemergence, 125 g ai/ha, 0 to 100 scale
Summary of the method: as §2

[9] = test system: blackgrass (Alopecurus myosuroides); test: Test A postemergence, blackgrass; conditions: Alopecurus myosuroides, post-emergence, 240 h, 10 days, read-out: Plant response rating, Blackgrass; for pest or weed control at 31 g/ha: 31 g ai/ha; for pest or weed control at 125 g/ha: 125 g ai/ha
Summary of the method: as §2

[10] = test system: kochia (Bassia scoparia); test: Test A postemergence, kochia; conditions: Bassia scoparia, post-emergence, 240 h, 10 days, read-out: Plant response rating, Kochia; for pest or weed control at 31 g/ha: 31 g ai/ha, postemergence, 0 to 100 scale (0 no effect, 100 complete control); for pest or weed control at 125 g/ha: Postemergence, 125 g ai/ha, 0 to 100 scale
Summary of the method: as §2

[11] = test system: kochia (Bassia scoparia); test: Test A preemergence, kochia; conditions: Bassia scoparia, pre-emergence, 240 h, 0 to 100 scale, 10 days, read-out: Plant response rating, Kochia; for pest or weed control at 31 g/ha: 31 g ai/ha; for pest or weed control at 125 g/ha: 125 g ai/ha
Summary of the method: as §2

[12] = test system: rice (Oryza sativa); test: Test B flooded paddy test, rice; conditions: Oryza sativa; 250 g ai/ha, Flood; visually evaluated after 10 to 14 days; read-out: Plant response rating, Rice (0 to 100 scale where 0 is no effect and 100 is complete control)
Summary of the method: as §1

[13] = test system: barnyardgrass (Echinochloa crus-galli); test: Test A postemergence, barnyardgrass; conditions: 10 days
Summary of the method: as §2

[14] = test system: galium (catchweed bedstraw, Galium aparine); test: Test A postemergence, galium; conditions: Galium, post-emergence, 240 h, 10 days, read-out: Plant response rating, Galium; for pest or weed control at 31 g/ha: 31 g ai/ha, postemergence, 0 to 100 scale (0 no effect, 100 complete control); for pest or weed control at 125 g/ha: Postemergence, 125 g ai/ha, 0 to 100 scale
Summary of the method: as §2

[15] = test system: foxtail, giant (giant foxtail, Setaria faberi); test: Test A postemergence, foxtail, giant; conditions: Setaria faberi, post-emergence, 240 h, 10 days, read-out: Plant response rating, Foxtail, Giant; for pest or weed control at 31 g/ha: 31 g ai/ha; for pest or weed control at 125 g/ha: 125 g ai/ha
Summary of the method: as §2

[16] = test system: redroot pigweed (Amaranthus retroflexus); test: Test A preemergence, redroot pigweed; conditions: 0 to 100 scale, 10 days
Summary of the method: as §2

[17] = 125 g ai/ha, 0 to 100 scale (0 no effect, 100 complete control)
[18] = Postemergence, 125 g ai/ha, 0 to 100 scale
[19] = postemergence, 0 to 100 scale (0 no effect, 100 complete control)

| Structure (SMILES) | pest or weed control at 250 g/ha [1] [%] | pest or weed control at 31 g/ha [2] [%] | pest or weed control at 125 g/ha [2] [%] | plant injury at 31 g/ha [3] [%] | plant injury at 125 g/ha [3] [%] | Corn plant response rating (crop injury, 0 = no effect, 100 = complete kill) at 125 g/ha ([4]; Postemergence, 0 to 100 scale) [%] | Plant response rating, Barnyardgrass ([5]; 31 g ai/ha, 0 to 100 scale) | Plant response rating, Barnyardgrass [5, 17] | pest or weed control at 31 g/ha [6] [%] | pest or weed control at 125 g/ha [6] [%] | pest or weed control at 250 g/ha [7] [%] | pest or weed control at 31 g/ha [8] [%] | pest or weed control at 125 g/ha [8] [%] | pest or weed control at 125 g/ha ([9]; Postemergence, 0 to 100 scale) [%] | pest or weed control at 31 g/ha [10] [%] | pest or weed control at 125 g/ha [10] [%] | pest or weed control at 31 g/ha [11] [%] | pest or weed control at 125 g/ha [11] [%] | plant injury at 250 g/ha [12] [%] | Plant response rating, Barnyardgrass [13, 18] | other results |
| --- | --- | --- | --- | --- | --- | --- | --- | --- | --- | --- | --- | --- | --- | --- | --- | --- | --- | --- | --- | --- | --- |
| CC(=O)OCOc1c(Cl)nn(C)c(=O)c1-c1c2ccccc2cc2ccccc12 [Compound 10, 5-[(acetyloxy)methoxy]-4-(9-anthracenyl)-6-chloro-2-methyl-3(2H)-pyridazinone] | 95 | 40 | 40 | 0 | 0 | 20 | 0 | 0 | 0 | 10 | 15 | 100 | 100 | 0 | 0 | 10 | 0 | 0 | 0 | 10 | Corn plant response rating (crop injury, 0 = no effect, 100 = complete kill) at 31 g/ha ([4]; Postemergence, 0 to 100 scale): 10%; pest or weed control at 31 g/ha ([9]; Postemergence, 0 to 100 scale): 30%; Plant response rating, Barnyardgrass ([13]; Postemergence, 31 g ai/ha, 0 to 100 scale): 20; pest or weed control at 31 g/ha [14]: 90%; pest or weed control at 125 g/ha [14]: 100%; pest or weed control at 31 g/ha ([15]; Postemergence, 0 to 100 scale): 10%; pest or weed control at 125 g/ha ([15]; Postemergence, 0 to 100 scale): 50%; Plant response rating, Pigweed, Redroot ([16]; 31 g ai/ha): 100; Plant response rating, Pigweed, Redroot ([16]; 125 g ai/ha): 100 |
| CC(=O)OCOc1c(C)nn(C)c(=O)c1-c1c2cc(C)ccc2cc2ccc(F)cc12 [Compound 24, 5-[(acetyloxy)methoxy]-4-(2-fluoro-7-methyl-9-anthracenyl)-2,6-dimethyl-3(2H)-pyridazinone] | 80 | 90 | 90 | 0 | 0 | 20 | 60 | 90 | 50 | 80 | 70 | 80 | 100 | 20 | 90 | 100 | 70 | 90 | 50 | 90 | Corn plant response rating (crop injury, 0 = no effect, 100 = complete kill) at 31 g/ha [4, 19]: 10%; pest or weed control at 31 g/ha [9, 19]: 0%; Plant response rating, Barnyardgrass ([13]; 31 g ai/ha, postemergence, 0 to 100 scale (0 no effect, 100 complete control)): 80; pest or weed control at 31 g/ha [14]: 100%; pest or weed control at 125 g/ha [14]: 100%; pest or weed control at 31 g/ha [15, 19]: 90%; pest or weed control at 125 g/ha ([15]; Postemergence, 0 to 100 scale): 90%; Plant response rating, Pigweed, Redroot ([16]; 31 g ai/ha): 100; Plant response rating, Pigweed, Redroot ([16]; 125 g ai/ha): 100 |
